Data set [1] is described as follows: precipitation of small molecules under acid-mediated amyloidogenic conditions in the absence of TTR. It is filed as physicochemical. The settings on record: 3.6 μM, pH 4.4, 37° C., 72 h. As for the experimental part:
(§1) TTR amyloid inhibition efficacy was probed using a stagnant fibril formation assay described previously, wherein partial denaturation was triggered by acidification (pH 4.4, 37° C.) (Colon, W.; Kelly, J. W. Biochemistry 1992, 31, 8654-8660). Briefly, a test compound (7.2 or 3.6 μM) is incubated with TTR (3.6 μM) for 30 min in pH 7 buffer. Amyloidogenesis is then initiated by lowering to pH 4.4, where maximal fibril formation is observed with WT-TTR after 72 h (37° C.). […] From experience we know that excellent inhibitors allow <10% fibril formation at a small molecule concentration of 7.2 μM and <40% fibril formation at a concentration equal to that of WT-TTR (3.6 μM) (Hammarstrom, P.; et al. Science 2003, 299, 713-716; Klabunde, T.; et al. Nature Struct. Biol. 2000, 7, 312-321; Razavi, H.; et al. Angew Chem 2003, 42, 2758-2761; Miroy, G. J.; et al. Proc. Natl. Acad. Sci. USA 1996, 93, 15051-15056; Peterson, S. A.; et al. Proc. Natl. Acad. Sci. USA 1998, 95, 12956-12960; Baures, P. W.; et al. Bioorg. Med. Chem. 1998, 6, 1389-1401; Baures, P. W.; et al. Bioorg. Med. Chem. 1999, 7, 1339-1347; Petrassi, H. M.; et al. J. Am. Chem. Soc. 2000, 122, 2178-2192; McCammon, M. G.; et al. Structure 2002, 10, 851-863; Oza, V. B.; et al. J. Med. Chem. 2002, 45, 321-332; Saccheftini, J. C.; et al. Nature Rev. Drug Disc. 2002, 1, 267-275; Green, N. S.; et al. J. Am. Chem. Soc. 2003, 125, 13404-13414; Adamski-Werner, S. L.; et al. J. Med. Chem. 2004, 47, 355-374; Miller Sean, R.; et al. Lab. Inv. 2004, 84, 545-552). […] Therefore, when both the ligand and TTR are at equal concentrations, a population of TTR•I, TTR•I2 and unliganded TTR is observed, dictated by the dissociation constants. It is now established by other studies that inhibitor occupancy of only one of the two TTR binding sites is sufficient to stabilize the entire tetramer against amyloidogenesis (Wiseman, R. L.; et al. J. Am. Chem. Soc. 2005, in press). This is further supported by the observation herein that twenty-six of these dibenzofurans are excellent TTR amyloidogenesis inhibitors (<40% fibril formation) at a concentration equal to that of TTR (3.6 μM each, FIG. 3).

The target of data set [2] is T1, TTR in human blood plasma (Homo sapiens, UniProt P02766).
T1 construct: from tissue; host or cells: human blood plasma
Nature of the data set: plasma TTR binding selectivity, antibody capture method. The settings on record: inhibitor 10.8 μM, 24 h, 37° C. As for the experimental part:
Inhibitor binding selectivity to TTR in human blood plasma was assessed using a previously established antibody capture method (Purkey, H. E.; et al. Proc. Natl. Acad. Sci. USA 2001, 98, 5566-5571). In this evaluation, inhibitors (10.8 μM, ˜2-3× the natural concentration of TTR) are incubated in human blood plasma for 24 h at 37° C. Quenched sepharose resin is then added to the plasma to remove any small molecules that would bind to the resin as opposed to TTR. TTR and any TTR-bound small molecule is then immunocaptured using a polyclonal TTR antibody covalently attached to sepharose resin. After washing the resin (5×10 min washes), the antibody-TTR complex is dissociated at high pH and analyzed by RP-HPLC. The relative stoichiometry between TTR and inhibitor is then calculated from their HPLC peak areas using standard curves.
(§2) The procedures used for bacterial expression of TTR (Lai, Z.; et al. Biochemistry 1996, 35, 6470-6482), the stagnant fibril formation assay (Colon, W.; Kelly, J. W. Biochemistry 1992, 31, 8654-8660; Lai, Z.; et al. Biochemistry 1996, 35, 6470-6482), the blood plasma binding selectivity assay (Purkey, H. E.; et al. Proc. Natl. Acad. Sci. USA 2001, 98, 5566-5571), and analytical ultracentrifugation (Lashuel, H. A.; et al. Biochemistry 1998, 37, 17851-17864) have all been described in detail previously.

Data set [3] has as its target T2, WT-TTR (Homo sapiens, UniProt P02766).
T2 construct: made in house
Nature of the data set: stagnant acid-mediated fibril formation assay (turbidity). It is filed as biochemical. The settings on record: WT-TTR 3.6 μM; for inhibitor potency against fibril formation: inhibitor 3.6 μM, pH 4.4, 72 h. As for the experimental part: as §1, §2

In data set [4] the target is T2, WT-TTR. Nature of the data set: time course analysis of WT-TTR fibril formation inhibition. The data set is classed as biochemical. To be noted: inhibitor 7.2 and 3.6 μM, WT-TTR 3.6 μM, pH 4.4, turbidity at 500 nm. The method, then: Time course analysis of WT-TTR fibril formation inhibition by compounds 25, 47, and 64. Compounds 25, 47, and 64 were dissolved in DMSO to provide 7.2 mM primary stock solutions (10× stocks), from which 5- and 10-fold DMSO dilutions yielded 1.44 mM (2×) and 0.72 mM (1×) secondary stock solutions, respectively. 495 μL of 0.4 mg/mL (7.2 μM) WT-TTR solution (10 mM sodium phosphate, 100 mM KCl, and 1 mM EDTA, pH 7.2), and 5 μL of either the 1.44 or 0.72 mM inhibitor secondary stock solutions were added to disposable UV cuvettes, vortexed briefly, then incubated for 30 min at 25° C. The pH was then adjusted to 4.4 with addition of 500 μL of acidic buffer (100 mM acetate, 100 mM KCl, 1 mM EDTA, pH 4.2), and the final 1 mL solutions were vortexed again and incubated in the dark at 37° C. without agitation. At 0, 4, 8, 12, 25, 49, 74, 100, 122, 145, and 169 h time points after acidification, the solutions were vortexed and the turbidity at 500 nm was measured. Control samples containing 5 μL of pure DMSO were prepared and analyzed as above for comparison. Small molecule and TTR control samples were prepared in groups of 10 to prevent disturbance of the cuvettes during incubation. Samples were discarded after their turbidities were measured.
FIG. 10 is a plot of the timecourse analysis of WT-TTR (3.6 μM) fibril formation mediated by partial acid denaturation in the absence (▴) and presence of 7.2 μM (⋄) and 3.6 μM (◯) inhibitors 25, 47, and 64, as measured by turbidity at 500 nm (see color scheme within Figure to differentiate inhibitors). It is hard to discern which compound is most efficacious in the black and white plot.

In data set [5] the target is T3, WT-TTR tetramer (Homo sapiens, UniProt P02766).
T3 construct: made in house
Nature of the data set: time course analysis of WT-TTR tetramer dissociation by linked monomer unfolding in urea. The data set is classed as biochemical. The settings on record: inhibitor 7.2 and 3.6 μM, TTR 3.6 μM, far-UV CD. The source says: The ability of these inhibitors to impose kinetic stability on tetrameric TTR is best evaluated by assessing the rate of TTR tetramer dissociation (Hammarstrom, P.; et al. Science 2003, 299, 713-716; Hammarstrom, P.; et al. Proc. Natl. Acad. Sci. USA 2002, 99, 16427-16432). Under acidic conditions tetramer dissociation leads to amyloidogenesis, whereas in the presence of chaotropes (6M urea), tetramer dissociation leads to monomer unfolding. The influence of inhibitors 25, 47 and 64, representing the three structural classes of dibenzofuran-based inhibitors, on the rates of tetramer dissociation under acid- and urea-mediated denaturing conditions was probed. […] The rate of TTR tetramer dissociation in 6M urea is easily monitored by linking the slow quaternary structural changes to rapid tertiary structural changes that are easily monitored by spectroscopic methods (Hammarstrom, P.; et al. Proc. Natl. Acad. Sci. USA 2002, 99, 16427-16432).
Time course analysis of WT-TTR tetramer dissociation inhibition by compounds 25, 47, and 64 evaluated by linked-monomer unfolding in urea. Compounds 25, 47, and 64 were dissolved in DMSO to provide 10 mM primary stock solutions, from which 10-fold EtOH dilutions yielded 1 mM secondary stock solutions. 200 μL of 1.0 mg/mL (18 μM) WT-TTR solution (50 mM sodium phosphate, 100 mM KCl, and 1 mM EDTA, pH 7.2), and either 7.2 or 3.6 μL (2× and 1×, respectively) of 1 mM inhibitor secondary stock solutions were added to 2 mL eppendorf tubes, vortexed briefly, and incubated for 15 min at 25° C. 100 μL of the TTR•inhibitor solutions were added to 900 μL of urea buffer (6.67 M urea, 50 mM sodium phosphate, 100 mM KCl, 1 mM EDTA, pH 7.2), and the final 1 mL solutions were vortexed again and incubated in the dark at 25° C. without agitation. At 0, 4, 11, 24, 49, 73, 97, 122, 146, and 170 h time points after mixing with urea, the circular dichroism spectra were measured between […], with scanning every 0.5 nm and averaging for 5 s. […] Control samples containing 7.2 μL of 10% DMSO in EtOH were prepared and analyzed as above for comparison. […] TTR tetramer dissociation is linked to the rapid (˜500,000× faster) monomer denaturation as measured through this β-sheet loss (Hammarstrom, P.; et al. Proc. Natl. Acad. Sci. USA 2002, 99, 16427-16432).
FIG. 11 is a plot of the timecourse analysis of WT-TTR (3.6 μM) tetramer dissociation (6.0 M urea) in the absence (▴) and presence of 7.2 μM (⋄) and 3.6 μM (◯) concentrations of inhibitors 25, 47, and 64 (see color scheme within Figure to differentiate inhibitors). Slow tetramer dissociation is not detectable by far-UV CD spectroscopy, but this process is linked to rapid (˜500,000× faster) monomer denaturation as monitored by loss of β-sheet content easily followed by circular dichroism spectroscopy. […]

“Also recorded” adds a separate entry of the source.

On to `O=C(O)c1cccc2c1oc1c(C(=O)O)ccc(Nc3cccc(C(F)(F)F)c3)c12` [Compound 26], for which the “precipitation in the absence of TTR” value in data set [1] is given as “no measurable precipitation”. With `O=C(O)c1cccc2c1oc1c(C(=O)O)ccc(Nc3cc(Cl)cc(Cl)c3)c12` [Compound 30], in data set [1], the “precipitation in the absence of TTR” value is on record as “no measurable precipitation”.

For the compound `O=C(O)c1cccc2c1oc1c(C(=O)O)ccc(Nc3cc(C(F)(F)F)cc(C(F)(F)F)c3)c12` [Compound 31], the “binding selectivity to TTR in human blood plasma” value (from here on “binding selectivity to TTR”) in data set [2] was “all but two (31 and 35) exhibit dramatically increased binding selectivity”.

In the case of `O=C(O)c1cccc(Nc2ccc(C(=O)O)c3oc4c(C(=O)O)cccc4c23)c1` [Compound 33], the “inhibitor potency against fibril formation” value (“inhibitor potency” below) in data set [3] is on record as “amongst the most potent”. Moreover, the “binding selectivity to TTR” value in data set [2] is reported as “modest”. Consider `O=C(O)c1cc(Nc2ccc(C(=O)O)c3oc4c(C(=O)O)cccc4c23)cc(C(=O)O)c1` [Compound 34], for which the “inhibitor potency” value in data set [3] is “all the inhibitors (except 34) display increased potency”. The “inhibition of WT-TTR fibril formation” value in data set [3] (inhibitor 7.2 μM, pH 4.4, 37° C., 72 h) is on record as “not as effective; also recorded: all but one (34) completely inhibit fibril formation”.

For the compound `O=C(O)c1ccc(Nc2ccc(C(=O)O)c3oc4c(C(=O)O)cccc4c23)cc1` [Compound 35], the “binding selectivity to TTR” value in data set [2] was “all but two (31 and 35) exhibit dramatically increased binding selectivity”. Turning to `O=C(O)c1cccc2c1oc1c(C(=O)O)ccc(Nc3ccccc3F)c12` [Compound 36], in data set [3], the “inhibitor potency” value is reported as “most potent”. Take `O=C(O)c1cccc2c1oc1c(C(=O)O)ccc(Oc3cccc(C(F)(F)F)c3)c12` [Compound 45]: in data set [1], the “precipitation in the absence of TTR” value was “no measurable precipitation”. For `O=C(O)c1cccc2c1oc1c(C(=O)O)ccc(-c3cc(F)cc(F)c3)c12` [Compound 62], the “precipitation in the absence of TTR” value in data set [1] was “no measurable precipitation”. As to `O=C(O)c1cccc2c1oc1c(C(=O)O)ccc(-c3cc(Cl)cc(Cl)c3)c12` [Compound 63], the “inhibitor potency” value in data set [3] is “most potent”. For `O=C(O)c1cccc2c1oc1c(C(=O)O)ccc(-c3cc(C(F)(F)F)cc(C(F)(F)F)c3)c12` [Compound 64], the “rate of TTR amyloidogenesis mediated by partial acidification relative to control” value in data set [4] is reported as “dramatically slowed in a dose-dependent fashion”. The “rate of TTR tetramer dissociation in 6M urea” value in data set [5] was “markedly slowed in a dose-dependent fashion”. Take `O=C(O)c1cccc2c1oc1c(C(=O)O)ccc(-c3ccccc3F)c12` [Compound 67]: the “inhibitor potency” value in data set [3] was “most potent”. `O=C(O)c1cccc(-c2ccc(C(=O)O)c3oc4c(C(=O)O)cccc4c23)c1` [Compound 69]: the “inhibitor potency” value in data set [3] is reported as “amongst the most potent”. Moreover, the “binding selectivity to TTR” value in data set [2] is reported as “modest”.
